From ChEMBL document CHEMBL4651402, “Screening of ~5500 FDA-approved drugs and clinical candidates for anti-SARS-CoV-2 activity” (2021)

Tested on: SARS-CoV-2
Assay: microbe, parasite or virus in culture
Details: Severe acute respiratory syndrome coronavirus 2, Vero C1008, 48 h

| SMILES | IC50 [µM] | IC50 (read-out: pIC50 (converted)) [µM] |
| --- | --- | --- |
| O=C(O)Cc1cccc(-c2cc(CCCCCCc3ccc(O[C@H]4O[C@H](CO)[C@@H](O)[C@H](O)[C@@H]4O)c(-c4cccc(CC(=O)O)c4)c3)ccc2O[C@H]2O[C@H](CO)[C@@H](O)[C@H](O)[C@@H]2O)c1 [BIMOSIAMOSE] | > 20 | > 20 |
| Cn1c(=O)c2c(ncn2CC(=O)O)n(C)c1=O [ACEFYLLINE] | > 20 | > 20 |
| CCN(CC)CCNC(=O)c1cc(S(C)(=O)=O)ccc1OC [TIAPRIDE] | > 20 | > 20 |
| CC1=CC(=O)C2=C(C)CCC3[C@H](C)C(=O)O[C@@H]3[C@@H]12 (some centres undefined) | > 20 | > 20 |
| CC(C)(C)C(=O)OCC(=O)[C@H]1CC[C@H]2[C@@H]3CCC4=CC(=O)CC[C@]4(C)[C@H]3CC[C@]12C [DESOXYCORTICOSTERONE PIVALATE] | > 20 | > 20 |
| O=C(Cn1c2ccccc2c2c(N3CCCC3)nc(N3CCCC3)nc21)N1CCCC1 | > 20 | > 20 |
| CCOc1ccc(CC2=NCCc3cc(OC(C)C)c(OC(C)C)cc32)cc1OCC [DIPROTEVERINE] | > 20 | > 20 |
| COC(=O)C1=C(C)NC(C)=C(C(=O)OCCN(C)Cc2ccccc2)C1c1cccc([N+](=O)[O-])c1 (centres undefined) [NICARDIPINE] | > 20 | > 20 |
| C=CCOC(Cn1ccnc1)c1ccc(Cl)cc1Cl (centres undefined) [ENILCONAZOLE] | > 20 | > 20 |
| CCC(C)(C)O [AMYLENE HYDRATE] | > 20 | > 20 |
| CC(=O)N[C@@H](CC(N)=O)C(=O)O | > 20 | > 20 |
| Cc1cc(=O)n(-c2ccccc2)n1C [ANTIPYRINE] | > 20 | > 20 |
| CC1=CCCC2C1(C)CCC(C)C2(C)Cc1cc(O)ccc1O (centres undefined) | > 20 | > 20 |
| C=CC(=O)N1CCC(Oc2cc3c(Nc4ccc(Cl)c(Cl)c4F)ncnc3cc2OC)CC1 [POZIOTINIB] | > 20 | > 20 |
| CC(C(=O)O)c1cccc2c(-c3ccccc3)coc12 (centres undefined) [FURAPROFEN] | > 20 | > 20 |
| Cc1cc(CCCOc2c(C)cc(-c3noc(C(F)(F)F)n3)cc2C)on1 [PLECONARIL] | > 20 | > 20 |
| C[C@H]1CN([C@H]2CC[C@](C#N)(c3ccc(F)cc3)CC2)CC[C@@]1(C(=O)O)c1ccccc1 | > 20 | > 20 |
| C=C(C)[C@H]1CN[C@H](C(=O)O)[C@H]1CC(=O)O [KAINIC ACID] | > 20 | > 20 |
| CC12C=CC(=O)C=C1CCC1C3CC4Cc5ccccc5CC4(C(=O)CO)C3(C)CC(O)C12F (centres undefined) | > 20 | > 20 |
| N#CC(CCN1CCC(C(=O)O)(c2ccccc2)CC1)(c1ccccc1)c1ccccc1 [DIFENOXIN] | > 20 | > 20 |
| COC(=O)C1=C(CN2CC(F)(F)C[C@H]2C(=O)O)NC(c2nccs2)=N[C@@]1(C)c1ccc(F)cc1 | > 20 | > 20 |

| SMILES | IC50 [µM] | IC50 (read-out: pIC50 (converted)) [µM] |
| --- | --- | --- |
| [2H]c1c(C([2H])([2H])[2H])nc(N2CC3CN(C(=O)c4c(F)cccc4-n4nccn4)CC3C2)nc1C([2H])([2H])[2H] (centres undefined) | > 20 | > 20 |
| C[C@H](N)Cc1cccc(O)c1 [GEPEFRINE] | > 20 | > 20 |
| Oc1ccc2c3c1O[C@H]1[C@@H](O)C=C[C@H]4[C@@H](C2)NCC[C@@]341 [NORMORPHINE] | > 20 | > 20 |
| C[n+]1cccc(C(=O)[O-])c1 [TRIGONELLINE] | > 20 | > 20 |
| NC(=O)NNc1ccccc1 [PHENICARBAZIDE] | > 20 | > 20 |
| C[C@H]1O[C@H](OC[C@@H]2O[C@H](Oc3c(-c4ccc(O)c(O)c4)oc4cc(O)cc(O)c4c3=O)[C@@H](O)[C@H](O)[C@H]2O)[C@@H](O)[C@@H](O)[C@@H]1O | > 20 | > 20 |
| CC(=O)[C@@]1(O)CCC2C3C[C@H](C)C4=CC(=O)CCC4(C)C3CCC21C (some centres undefined) | > 20 | > 20 |
| CN(C)[C@@H](c1cccnc1)C1COCOC1 [DOXPICOMINE] | > 20 | > 20 |
| O=C1C=CC(=O)c2c1ccc1c2ccc2ccccc21 | > 20 | > 20 |
| Cc1cc2cc3c(C)cc(=O)oc3c(C)c2o1 [TRIOXSALEN] | > 20 | > 20 |
| OC(CNc1ccccn1)c1ccccc1 (centres undefined) [PHENYRAMIDOL] | > 20 | > 20 |
| COC(=O)C1=C(C)NC(C)=C(C(=O)OC(C)C)C1c1cccc2nonc12 (centres undefined) [ISRADIPINE] | > 20 | > 20 |
| O=C(O)c1ccc(C2CC2c2ccc(OCc3c(-c4c(Cl)cccc4Cl)noc3C3CC3)cc2Cl)cc1 (centres undefined) | > 20 | > 20 |
| S=C(NCc1ccc2c(c1)OCO2)N1CCN(c2ncnc3c2oc2ccccc23)CC1 [AMUVATINIB] | > 20 | > 20 |
| Clc1ccc(CO[C@H](Cn2ccnc2)c2ccc(Cl)cc2Cl)c(Cl)c1 | > 20 | > 20 |
| CN1CCC(=C2c3ccccc3Oc3ncccc32)CC1 [AZANATOR] | > 20 | > 20 |
| CCc1ccc(C(=O)COc2ccc(CC3SC(=O)NC3=O)cc2)nc1 (centres undefined) [MITOGLITAZONE] | > 20 | > 20 |
| COc1cc(C(=O)OC(COCCC(C)C)CN2CCOCC2)cc(OC)c1OC (centres undefined) [AMOPROXAN] | > 20 | > 20 |
| CCC(=O)[C@@]1(C)[C@H](C)C[C@H]2[C@@H]3CCC4=CC(=O)C=C[C@]4(C)[C@H]3[C@@H](O)C[C@@]21C [RIMEXOLONE] | > 20 | > 20 |
| O=c1[nH]c(=O)n([C@H]2C[C@H](O)[C@@H](CO)O2)cc1C(F)(F)F [TRIFLURIDINE] | > 20 | > 20 |
| CC(C)C(C)/C=C/C(C)C1CCC2C3=CC=C4CC(O)CCC4(C)[C@H]3CCC21C (some centres undefined) | > 20 | > 20 |

| SMILES | IC50 [µM] | IC50 (read-out: pIC50 (converted)) [µM] |
| --- | --- | --- |
| NCCS [CYSTEAMINE] | > 10 | > 10 |
| COc1cc(Cc2cnc(N)nc2N)cc(OC)c1OC [TRIMETHOPRIM] | > 20 | > 20 |
| O=C(O)Cc1sc2nc3ccccc3n2c1-c1ccc(Cl)cc1 [TILOMISOLE] | > 20 | > 20 |
| Cc1cccc(C)c1NC(=O)NCCCNC(C)C | > 20 | > 20 |
| COC(=O)N/N=C/c1c[n+]([O-])c2ccccc2[n+]1[O-] [CARBADOX] | > 20 | > 20 |
| O=C(O)c1cc2cc(Cc3cccnc3)ccc2o1 [FUREGRELATE] | > 20 | > 20 |
| O=C(Nc1cc(Cl)cc(Cl)c1O)c1c(O)c(Cl)cc(Cl)c1Cl [OXYCLOZANIDE] | > 20 | > 20 |
| CC(=O)OCC1=C(C(=O)O)N2C(=O)[C@@H](N)[C@H]2SC1 | > 20 | > 20 |
| COc1cccc(N2CCN(C3=Nc4c(F)cccc4C(CC(=O)O)N3c3cc(C(F)(F)F)ccc3OC)CC2)c1 (centres undefined) | > 20 | > 20 |
| OC(CCN1CCCCC1)(c1ccccc1)C1CCCCC1 (centres undefined) [TRIHEXYPHENIDYL] | > 20 | > 20 |
| COCC(O)Cn1ccnc1[N+](=O)[O-] (centres undefined) [MISONIDAZOLE] | > 20 | > 20 |
| N=C(NO)N/N=C/c1c(Cl)cccc1Cl [GUANOXABENZ] | > 20 | > 20 |
| CC(C)(C)CC(=O)OCC(=O)[C@@]12OC(C)(C)O[C@@H]1C[C@H]1[C@@H]3CCC4=CC(=O)C=C[C@]4(C)[C@@]3(F)[C@@H](O)C[C@@]12C [TRIAMCINOLONE HEXACETONIDE] | > 20 | > 20 |
| Nc1cc(Cl)c(N=C2NCCN2)c(Cl)c1 [APRACLONIDINE] | > 20 | > 20 |
| CCC(/C=C/C(C)C1CCC2C3CC=C4CC(O)CCC4(C)C3CCC12C)C(C)C (centres undefined) | > 20 | > 20 |
| O=C(O)c1cc(/N=N/c2ccc(S(=O)(=O)Nc3ccccn3)cc2)ccc1O [SULFASALAZINE] | > 20 | > 20 |
| CC12CCCC1C1CC[C@H]3CCCC[C@]3(C)C1CC2 (some centres undefined) | > 20 | > 20 |
| O=C(CCCN1CCC(O)(c2ccc(Cl)cc2)CC1)c1ccc(F)cc1 [HALOPERIDOL] | > 20 | > 20 |
| Cc1ccc(F)c(NC(=O)Nc2ccc(-c3cccc4[nH]nc(N)c34)cc2)c1 [LINIFANIB] | > 20 | > 20 |
| CN(C)Cc1ccc(S(=O)(=O)n2ccc(/C=C/C(=O)NO)c2)cc1 [RESMINOSTAT] | > 20 | > 20 |
